# Entries after “also recorded” stand apart in the source; their conditions may differ.
# How the values were obtained:
# DNA-PK complex = molecular target: T1, DNA-PK complex (Homo sapiens, UniProt P78527); test: DNA-PK complex kinase activity in extracts of treated cells, standard p53 peptide assay; type: cell-based; details: HCT116 cells treated with 10 μM at time 0 and at 4 hr post-infection
# T1 construct: whole cell extracts were prepared from a portion of the cells and assayed for DNA-PK complex kinase activity; endogenous in cells; host or cells: HCT116 (controls: MO59J, MO59K)
# Experimental: Nuclear extracts were incubated on ice for 15 min with preswollen dsDNA-cellulose (Sigma). Nuclear extract (100 μg) was used with each sample. Following incubation on ice, the samples were washed twice in Z′ 0.05 buffer (25 mM HEPES-KOH, 50 mM KCl, 10 mM MgCl2, 20% glycerol, 0.1% IGEPAL™, 1 mM dithiothreitol). After the washing steps, the samples were centrifuged and the precipitate was resuspended in 100 μl Z′ 0.05 buffer. […] The wild-type peptide can be phosphorylated by DNA-PK at the serine residue, while the mutant peptide is not recognized by DNA-PK. Following incubation, polyacrylamide gel electrophoresis was carried out. The gel was vacuum dried and exposed to X-ray film. The amount of phosphorylated peptide was quantified using a phosphorimager.
# HCT116 cells = test: rAAV-mediated gene targeting of the CCR5 locus in HCT116 cells, correct targeting scored by diagnostic PCR of G418-resistant clones; type: cell-based, human
# Experimental: The human colon cancer cell line HCT116 was obtained from the American Type Culture Collection and maintained in McCoy's 5A media (Mediatech Inc.) containing 10% heat inactivated fetal calf serum (Cambrex), 2 mM L-glutamine, 100 U/ml penicillin and […] streptomycin (Invitrogen). The cells were grown at 37° C. in a humidified incubator with 5% CO2. Cell lines derived from correct targeting events were grown either in the presence of 1 mg/ml G418 or 1 μg/mL puromycin.
# The targeting vectors, Ku70-Neo (Fattah et al., DNA Repair, 2008, 7:762-774) and CCR5-Neo (Fattah et al., PNAS, 2008, 105:8703-8708), were constructed by using the rAAV system as described (Kohli et. al., Nucl. Acids Res., 2004, 32:e3). All virus packaging and infections were performed as described (Kohli et. al., Nucl. Acids Res., 2004, 32:e3).
# Genomic DNA for PCR screening was isolated by using phenol extraction followed by ethanol precipitation. DNA-PKcs- and CCR5-targeting events were identified by PCR using conditions described elsewhere (Ruis et. al., Mol. Cell. Biol., 2008, 28:6182-6195; Kohli et. al., Nucl. Acids Res., 2004, 32:e3). The primers used to screen for DNA-PKcs targeting events were LArmR, […] (SEQ ID NO:5) and PKcs81-83F1, […]. (SEQ ID NO:6) The primers used to screen for CCR5 targeting events were CF, GCACCATGCTTGACCCAG (SEQ ID NO:7) and NR, […] (SEQ ID NO:8). […]
compound,measurement,setting,value
"O=c1cc(N2CCOCC2)oc2c(-c3cccc4c3sc3ccccc34)cccc12 [NU7441, 8-dibenzothiophen-4-yl-2-morpholin-4-yl-chromen-4-one]",duration of DNA-PK / DNA-PKcs inhibition,DNA-PK complex,a matter of hours; also recorded: several hours
same,DNA-PK activity,DNA-PK complex; whole cell extracts,nearly completely ablated
same,increase of frequency of gene targeting,"HCT116 cells; DNA-PKcs kinase inhibition by NU7441, rAAV CCR5 vector, compared to wild-type cells",~7 fold
same,correct gene targeting frequency,"HCT116 cells; HCT116, 10 μM NU7441 at time 0 and again at 4 hr post-infection, rAAV CCR5 vector, 17 of 229 G418-resistant clones",7.4%

# — patent US20130273656A1, “METHOD TO INCREASE GENE TARGETING FREQUENCY” (Regents of the University of Minnesota, priority 2010, published 2013)
